Test results as given in patent US20080200454A1, “CARBON-LINKED TETRAHYDRO-PYRAZOLO-PYRIDINE MODULATORS OF CATHEPSIN S” (priority 2007, published 2008).

Target: Recombinant human cathepsin S (CatS) (Homo sapiens, UniProt P25774)
Assay: Recombinant human cathepsin S (CatS) inhibition assay, fluorogenic substrate Z-Valine-Valine-Arginine-AMC;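 also: Baculovirus-expressed CatS in pH 5.0 sodium acetate buffer with DTT and NaCl, fluorescence read each minute over 20 min, inhibition derived from rate slope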
Conditions: not given

Chain of Recombinant human cathepsin S (CatS) (P25774 115-331): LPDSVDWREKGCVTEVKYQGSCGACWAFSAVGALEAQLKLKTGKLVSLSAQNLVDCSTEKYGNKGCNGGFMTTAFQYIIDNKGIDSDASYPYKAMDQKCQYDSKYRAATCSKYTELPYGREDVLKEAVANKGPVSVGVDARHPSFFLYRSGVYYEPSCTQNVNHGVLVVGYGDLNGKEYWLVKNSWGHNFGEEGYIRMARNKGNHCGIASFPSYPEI

| SMILES | IC50 [nM] |
| --- | --- |
| CS(=O)(=O)N1CCc2c(c(-c3ccc(Cl)c(C#CC4CCCCC4)c3)nn2C[C@@H](O)CN2CCC(C3CCNCC3)CC2)C1 [Example 472, (2S)-1-(4,4′-Bipiperidin-1-yl)-3-{3-[4-chloro-3-(cyclohexylethynyl)phenyl]-5-(methylsulfonyl)-4,5,6,7-tetrahydro-1H-pyrazolo[4,3-c]pyridin-1-yl}propan-2-ol] | 4510 |
| CN1CCN(CCCc2cc(-c3nn(CCCN4CCC(N5CCCC5=O)CC4)c4c3CN(S(C)(=O)=O)CC4)ccc2Cl)CC1 [Example 106, 1-{1-[3-(3-{4-Chloro-3-[3-(4-methyl-piperazin-1-yl)-propyl]-phenyl}-5-methanesulfonyl-4,5,6,7-tetrahydro-pyrazolo[4,3-c]pyridin-1-yl)-propyl]-piperidin-4-yl}-pyrrolidin-2-one] | 4420 |
| NC(=O)C(=O)N1CCc2c(c(-c3ccc(Cl)c(C#Cc4ccc(CNCc5ccc(Cl)cc5)cc4)c3)nn2CCCN2C[C@@H]3C[C@H]2CO3)C1 [Example 435, 2-[3-(4-Chloro-3-{[4-({[(4-chlorophenyl)methyl]amino}methyl)phenyl]ethynyl}phenyl)-1-{3-[(1S,4S)-2-oxa-5-azabicyclo[2.2.1]hept-5-yl]propyl}-1,4,6,7-tetrahydro-5H-pyrazolo[4,3-c]pyridin-5-yl]-2-oxoacetamide] | 80 |
| CS(=O)(=O)N1CCc2c(c(-c3ccc(Cl)c(C#CCCO)c3)nn2CCCN2CCOCC2)C1 [Example 299, 4-{2-Chloro-5-[5-(methylsulfonyl)-1-(3-morpholin-4-ylpropyl)-4,5,6,7-tetrahydro-1H-pyrazolo[4,3-c]pyridin-3-yl]phenyl}but-3-yn-1-ol] | 4800 |
| COc1ccc(CCc2cc(-c3nn(CCCN4CCOCC4)c4c3CN(S(C)(=O)=O)CC4)ccc2Cl)cc1 [Example 58, 3-{4-Chloro-3-[2-(4-methoxy-phenyl)-ethyl]-phenyl}-5-methanesulfonyl-1-(3-morpholin-4-yl-propyl)-4,5,6,7-tetrahydro-1H-pyrazolo[4,3-c]pyridine] | 530 |
| CS(=O)(=O)N1CCc2c(c(-c3ccc(Cl)c(C#Cc4ccc5c(c4)CNCC5)c3)nn2CC(O)CN2CCCCC2)C1 (stereo not drawn) [Example 134, 1-{3-[4-Chloro-3-(1,2,3,4-tetrahydro-isoquinolin-7-ylethynyl)-phenyl]-5-methanesulfonyl-4,5,6,7-tetrahydro-pyrazolo[4,3-c]pyridin-1-yl}-3-piperidin-1-yl-propan-2-ol] | 180 |

The next lines start with the values.

| IC50 [nM] | SMILES |
| --- | --- |
| 1200 | CS(=O)(=O)N1CCc2c(c(-c3ccc(Cl)c(CCCNS(=O)(=O)c4cccc([N+](=O)[O-])c4)c3)nn2CCCN2CCC(N3CCCC3=O)CC2)C1 [Example 96, N-{3-[2-Chloro-5-(5-methanesulfonyl-1-{3-[4-(2-oxo-pyrrolidin-1-yl)-piperidin-1-yl]-propyl}-4,5,6,7-tetrahydro-1H-pyrazolo[4,3-c]pyridin-3-yl)-phenyl]-propyl}-3-nitro-benzenesulfonamide] |
| 350 | CS(=O)(=O)N1CCc2c(c(-c3ccc(Cl)c(C#Cc4ccc(CNC(=O)c5ccccc5)cc4)c3)nn2CCCN2CCOCC2)C1 [Example 73, N-(4-{2-Chloro-5-[5-methanesulfonyl-1-(3-morpholin-4-yl-propyl)-4,5,6,7-tetrahydro-1H-pyrazolo[4,3-c]pyridin-3-yl]-phenylethynyl}-benzyl)-benzamide] |
| 8520 | CS(=O)(=O)N1CCc2c(c(-c3ccc(Cl)c(C#Cc4nnc5n4CCNC5)c3)nn2CCCN2CCOCC2)C1 [Example 403, 3-({2-Chloro-5-[5-(methylsulfonyl)-1-(3-morpholin-4-ylpropyl)-4,5,6,7-tetrahydro-1H-pyrazolo[4,3-c]pyridin-3-yl]phenyl}ethynyl)-5,6,7,8-tetrahydro[1,2,4]triazolo[4,3-a]pyrazine] |
| 430 | CS(=O)(=O)N1CCc2c(c(-c3ccc(Cl)c(C#CCc4ccccc4)c3)nn2C[C@@H](O)CN2CCC(C3CCNCC3)CC2)C1 [Example 474, (2S)-1-(4,4′-Bipiperidin-1-yl)-3-{3-[4-chloro-3-(3-phenylprop-1-yn-1-yl)phenyl]-5-(methylsulfonyl)-4,5,6,7-tetrahydro-1H-pyrazolo[4,3-c]pyridin-1-yl}propan-2-ol] |
| 13500 | CS(=O)(=O)N1CCc2c(c(-c3ccc(Cl)c(C#CCOc4ccccc4)c3)nn2CCCN2CCOCC2)C1 [Example 52, 3-[4-Chloro-3-(3-phenoxy-prop-1-ynyl)-phenyl]-5-methanesulfonyl-1-(3-morpholin-4-yl-propyl)-4,5,6,7-tetrahydro-1H-pyrazolo[4,3-c]pyridine] |
| 190 | CS(=O)(=O)N1CCc2c(c(-c3ccc(Cl)c(C#Cc4ccc5[nH]ccc5c4)c3)nn2CCCN2CCOCC2)C1 [Example 1, 3-[4-Chloro-3-(1H-indol-5-ylethynyl)-phenyl]-5-methanesulfonyl-1-(3-morpholin-4-yl-propyl)-4,5,6,7-tetrahydro-1H-pyrazolo[4,3-c]pyridine] |
| 10 | CN(C)c1ccc2c(n1)n(C1CCN(CC(O)Cn3nc(-c4ccc(Cl)c(C#Cc5ccc(Cl)cc5)c4)c4c3CCN(S(C)(=O)=O)C4)CC1)c(=O)n2C (stereo not drawn) [Example 126, 3-[1-(3-{3-[4-Chloro-3-(4-chloro-phenylethynyl)-phenyl]-5-methanesulfonyl-4,5,6,7-tetrahydro-pyrazolo[4,3-c]pyridin-1-yl}-2-hydroxy-propyl)-piperidin-4-yl]-5-dimethylamino-1-methyl-1,3-dihydro-imidazo[4,5-b]pyridin-2-one] |
| 40 | CS(=O)(=O)N1CCc2c(c(-c3ccc(Cl)c(C#Cc4ccc5c(c4)CN(C4CC4)CC5)c3)nn2CCCN2CCN(c3ccccc3)CC2)C1 [Example 280, 7-[(2-Chloro-5-{5-(methylsulfonyl)-1-[3-(4-phenylpiperazin-1-yl)propyl]-4,5,6,7-tetrahydro-1H-pyrazolo[4,3-c]pyridin-3-yl}phenyl)ethynyl]-2-cyclopropyl-1,2,3,4-tetrahydroisoquinoline] |

Same assay, conditions: CatS IC50

| SMILES | IC50 [nM] |
| --- | --- |
| NC(=O)N1CCc2c(c(-c3ccc(Cl)c(C#Cc4ccc(CNCc5cccc(Cl)c5)cc4)c3)nn2CCCN2CCSCC2)C1 [Example 487, 3-(4-Chloro-3-{[4-({[(3-chlorophenyl)methyl]amino}methyl)phenyl]ethynyl}phenyl)-1-(3-thiomorpholin-4-ylpropyl)-1,4,6,7-tetrahydro-5H-pyrazolo[4,3-c]pyridine-5-carboxamide] | 60 |
| CS(=O)(=O)N1CCc2c(c(-c3ccc(Cl)c(C#Cc4cccc(CNCc5ccc(Cl)cc5)c4)c3)nn2CCCN2CCN(c3ccccc3)CC2)C1 [Example 446, 1-{3-[(2-Chloro-5-{5-(methylsulfonyl)-1-[3-(4-phenylpiperazin-1-yl)propyl]-4,5,6,7-tetrahydro-1H-pyrazolo[4,3-c]pyridin-3-yl}phenyl)ethynyl]phenyl}-N-[(4-chlorophenyl)methyl]methanamine] | 70 |
| CN(Cc1ccc(Cl)cc1)Cc1ccc(C#Cc2cc(-c3nn(CCCN4CCN(c5ccccc5)CC4)c4c3CN(S(C)(=O)=O)CC4)ccc2Cl)cc1 [Example 490, 1-{4-[(2-Chloro-5-{5-(methylsulfonyl)-1-[3-(4-phenylpiperazin-1-yl)propyl]-4,5,6,7-tetrahydro-1H-pyrazolo[4,3-c]pyridin-3-yl}phenyl)ethynyl]phenyl}-N-[(4-chlorophenyl)methyl]-N-methylmethanamine] | 70 |
| NC(=O)N1CCc2c(c(-c3ccc(Cl)c(C#Cc4ccc(CNCc5ccc(OC(F)F)cc5)cc4)c3)nn2CCCN2CCSCC2)C1 [Example 176] | 230 |
| CS(=O)(=O)N1CCc2c(c(-c3ccc(Cl)c(CCc4ccc5c(c4)CNCC5)c3)nn2CCCN2CCN(C3CC3)CC2)C1 [Example 229, 7-[2-(2-Chloro-5-{1-[3-(4-cyclopropylpiperazin-1-yl)propyl]-5-(methylsulfonyl)-4,5,6,7-tetrahydro-1H-pyrazolo[4,3-c]pyridin-3-yl}phenyl)ethyl]-1,2,3,4-tetrahydroisoquinoline] | 90 |
| CS(=O)(=O)N1CCc2c(c(-c3ccc(Cl)c(C#Cc4ccc(Cl)c(CNC5CCCC5)c4)c3)nn2CCCN2CCCCC2)C1 [Example 597, N-[2-Chloro-5-({2-chloro-5-[5-(methylsulfonyl)-1-(3-piperidin-1-ylpropyl)-4,5,6,7-tetrahydro-1H-pyrazolo[4,3-c]pyridin-3-yl]phenyl}ethynyl)benzyl]cyclopentanamine] | 40 |
| CS(=O)(=O)N1CCc2c(c(-c3ccc(Cl)c(C#Cc4ccc(Cl)c(Cl)c4)c3)nn2CCCN2CCOCC2)C1 [Example 13, 3-[4-Chloro-3-(3,4-dichloro-phenylethynyl)-phenyl]-5-methanesulfonyl-1-(3-morpholin-4-yl-propyl)-4,5,6,7-tetrahydro-1H-pyrazolo[4,3-c]pyridine] | 320 |
| C[C@H]1COCCN1CCCn1nc(-c2ccc(Cl)c(C#Cc3ccc(C(=O)NC[C@@H]4CCCN4)cc3)c2)c2c1CCN(C(=O)C(N)=O)C2 [Example 610, 4-{[5-(5-[Amino(oxo)acetyl]-1-{3-[(3S)-3-methylmorpholin-4-yl]propyl}-4,5,6,7-tetrahydro-1H-pyrazolo[4,3-c]pyridin-3-yl)-2-chlorophenyl]ethynyl}-N-[(2S)-pyrrolidin-2-ylmethyl]benzamide] | 30 |
| CN(Cc1ccc(Cl)cc1)Cc1ccc(C#Cc2cc(-c3nn(CCCN4CCOCC4)c4c3CN(S(C)(=O)=O)CC4)ccc2Cl)cc1 [Example 495, 1-[4-({2-Chloro-5-[5-(methylsulfonyl)-1-(3-morpholin-4-ylpropyl)-4,5,6,7-tetrahydro-1H-pyrazolo[4,3-c]pyridin-3-yl]phenyl}ethynyl)phenyl]-N-[(4-chlorophenyl)methyl]-N-methylmethanamine] | 770 |

Same assay, conditions: CatS IC50, Table 2; average of results obtained

| SMILES | IC50 [nM] |
| --- | --- |
| CS(=O)(=O)N1CCc2c(c(-c3ccc(Cl)c(C#Cc4ccc(N)cc4)c3)nn2CCCN2CCOCC2)C1 [Example 38, 4-{2-Chloro-5-[5-methanesulfonyl-1-(3-morpholin-4-yl-propyl)-4,5,6,7-tetrahydro-1H-pyrazolo[4,3-c]pyridin-3-yl]-phenylethynyl}-phenylamine] | 330 |
